Test results taken from ChEMBL document CHEMBL1201862, “PubChem BioAssay data set” (2004).
Calls of active or inactive are those of the source.

Assays:
Nonstructural protein 1 = Nonstructural protein 1 (Influenza A virus, UniProt Q194T2); format: functional, Influenza A virus (A/California/07/2009(H1N1))
Cytochrome P450 3A4 = Cytochrome P450 3A4 (Homo sapiens, UniProt P08684);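 note: CYP3A4 tested as one member of a cytochrome P450 panel screen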
[1] = CRF-BP/CRF-R2 complex antagonists, dose response, cell-based, uHTS hits, 384-well (AID 651639); format: functional, Homo sapiens; settings: read-out: IC50_Mean
Protein skinhead-1 = biological target: T1, Protein skinhead-1 (Caenorhabditis elegans, UniProt P34707); format: functional
T1 sequence (P34707 whole entry): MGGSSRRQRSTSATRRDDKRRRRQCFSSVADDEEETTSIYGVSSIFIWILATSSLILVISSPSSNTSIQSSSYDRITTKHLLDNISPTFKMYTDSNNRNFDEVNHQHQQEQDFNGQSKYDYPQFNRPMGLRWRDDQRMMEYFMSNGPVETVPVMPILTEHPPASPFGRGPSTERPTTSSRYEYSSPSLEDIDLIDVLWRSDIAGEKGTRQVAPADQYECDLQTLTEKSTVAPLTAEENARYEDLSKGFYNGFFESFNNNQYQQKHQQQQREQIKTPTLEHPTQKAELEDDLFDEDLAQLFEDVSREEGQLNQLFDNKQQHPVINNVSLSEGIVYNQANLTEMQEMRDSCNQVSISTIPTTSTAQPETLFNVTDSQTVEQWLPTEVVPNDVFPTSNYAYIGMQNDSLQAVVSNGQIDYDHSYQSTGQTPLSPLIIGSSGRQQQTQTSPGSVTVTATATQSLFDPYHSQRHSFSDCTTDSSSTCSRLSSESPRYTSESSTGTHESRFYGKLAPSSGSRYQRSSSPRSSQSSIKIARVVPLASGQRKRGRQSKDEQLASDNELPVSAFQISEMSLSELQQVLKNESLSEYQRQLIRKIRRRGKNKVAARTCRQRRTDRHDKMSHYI

[2] = biological target: T2, Corticotropin-releasing factor receptor 2/Corticotropin-releasing factor-binding protein (Homo sapiens, UniProt P24387+Q13324); test: Dose Response confirmation of uHTS hits for small molecule antagonists of the CRF-binding protein and CRF-R2 receptor complex.; format: functional; settings: read-out: IC50_Mean
T2 sequence (Q13324 whole entry): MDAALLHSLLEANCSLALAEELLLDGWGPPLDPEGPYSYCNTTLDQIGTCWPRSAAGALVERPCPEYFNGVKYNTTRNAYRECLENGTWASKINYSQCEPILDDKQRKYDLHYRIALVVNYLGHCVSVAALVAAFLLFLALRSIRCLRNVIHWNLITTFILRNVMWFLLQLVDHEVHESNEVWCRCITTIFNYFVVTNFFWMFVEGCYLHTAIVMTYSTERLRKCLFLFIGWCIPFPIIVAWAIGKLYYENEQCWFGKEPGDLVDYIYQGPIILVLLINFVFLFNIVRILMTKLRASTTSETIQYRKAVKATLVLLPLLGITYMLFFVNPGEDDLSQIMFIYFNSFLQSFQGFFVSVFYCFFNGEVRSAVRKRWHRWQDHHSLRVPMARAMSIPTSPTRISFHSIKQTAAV
T2 sequence (P24387 whole entry): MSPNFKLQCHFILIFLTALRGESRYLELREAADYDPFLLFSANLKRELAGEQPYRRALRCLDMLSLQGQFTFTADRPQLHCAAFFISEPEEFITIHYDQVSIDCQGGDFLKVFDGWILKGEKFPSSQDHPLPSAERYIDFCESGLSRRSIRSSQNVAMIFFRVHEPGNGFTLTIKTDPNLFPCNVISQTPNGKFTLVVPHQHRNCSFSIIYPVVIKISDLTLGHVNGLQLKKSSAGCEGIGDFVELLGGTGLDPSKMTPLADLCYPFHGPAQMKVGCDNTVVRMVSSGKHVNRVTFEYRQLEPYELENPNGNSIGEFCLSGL

[3] = biological target: T3, Short transient receptor potential channel 4 (Mus musculus, UniProt Q9QUQ5); test: mouse TRPC4 channel inhibitors, dose response, cell-based, HEK293 TRPC4/mu-opioid, Fluo-4 calcium (AID 434942); format: functional;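 note: potency of inhibitors blocking the TRPC4 calcium response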
T3 sequence (Q9QUQ5 whole entry): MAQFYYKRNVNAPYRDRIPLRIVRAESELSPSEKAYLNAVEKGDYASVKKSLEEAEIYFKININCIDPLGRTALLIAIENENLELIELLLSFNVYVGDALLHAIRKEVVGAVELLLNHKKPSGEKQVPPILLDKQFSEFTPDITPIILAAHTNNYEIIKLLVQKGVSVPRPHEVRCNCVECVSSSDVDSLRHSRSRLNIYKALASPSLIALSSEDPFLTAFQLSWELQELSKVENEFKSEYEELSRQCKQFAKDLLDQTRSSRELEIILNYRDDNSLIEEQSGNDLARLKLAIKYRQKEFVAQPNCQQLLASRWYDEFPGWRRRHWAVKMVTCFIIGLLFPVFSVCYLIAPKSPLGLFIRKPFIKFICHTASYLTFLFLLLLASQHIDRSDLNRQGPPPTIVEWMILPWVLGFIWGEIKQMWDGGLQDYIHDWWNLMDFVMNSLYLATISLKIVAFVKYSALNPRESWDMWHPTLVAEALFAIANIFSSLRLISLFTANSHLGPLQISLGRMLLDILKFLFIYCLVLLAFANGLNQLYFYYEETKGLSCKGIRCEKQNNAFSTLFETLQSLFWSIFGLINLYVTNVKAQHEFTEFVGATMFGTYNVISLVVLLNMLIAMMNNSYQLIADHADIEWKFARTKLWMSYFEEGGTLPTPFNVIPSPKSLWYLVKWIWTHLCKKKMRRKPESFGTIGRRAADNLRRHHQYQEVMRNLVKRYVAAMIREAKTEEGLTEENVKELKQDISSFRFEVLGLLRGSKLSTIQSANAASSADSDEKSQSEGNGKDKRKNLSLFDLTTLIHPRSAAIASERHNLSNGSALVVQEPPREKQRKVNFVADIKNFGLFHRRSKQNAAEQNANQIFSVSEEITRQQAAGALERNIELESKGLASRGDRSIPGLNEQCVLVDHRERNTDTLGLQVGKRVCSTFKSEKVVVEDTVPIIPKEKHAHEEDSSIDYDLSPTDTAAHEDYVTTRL

[4] = biological target: T2, Corticotropin-releasing factor receptor 2/Corticotropin-releasing factor-binding protein; test: activators of CRF receptor 2 with binding protein – uHTS hits, confirmation (AID 602473); format: functional; settings: read-out: EC50_Mean
[5] = biological target: T4, Endoribonuclease toxin MazF (Escherichia coli K-12, UniProt P0AE70); test: MazF toxin RNase activators, dose response, biochemical, fluorescence, single-stranded RNA substrate, uHTS hits (AID 588481); format: functional
T4 sequence (P0AE70 whole entry): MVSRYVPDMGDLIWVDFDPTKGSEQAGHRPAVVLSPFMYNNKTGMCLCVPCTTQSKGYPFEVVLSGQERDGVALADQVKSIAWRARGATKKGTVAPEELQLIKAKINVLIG

[6] = biological target: T4, Endoribonuclease toxin MazF; test: fluorescent RNA oligo signal without MazF, dose response, counter-screen for MazEF activator project, biochemical, fluorescence, single-stranded RNase substrate (AID 588502); format: functional
[7] = biological target: T5, Calpain-2 catalytic subunit (Sus scrofa, UniProt P43367); test: pig calpain II inhibitor potency, dose response, biochemical, fluorogenic peptide substrate (AID 1420); format: functional
T5 sequence (P43367 whole entry): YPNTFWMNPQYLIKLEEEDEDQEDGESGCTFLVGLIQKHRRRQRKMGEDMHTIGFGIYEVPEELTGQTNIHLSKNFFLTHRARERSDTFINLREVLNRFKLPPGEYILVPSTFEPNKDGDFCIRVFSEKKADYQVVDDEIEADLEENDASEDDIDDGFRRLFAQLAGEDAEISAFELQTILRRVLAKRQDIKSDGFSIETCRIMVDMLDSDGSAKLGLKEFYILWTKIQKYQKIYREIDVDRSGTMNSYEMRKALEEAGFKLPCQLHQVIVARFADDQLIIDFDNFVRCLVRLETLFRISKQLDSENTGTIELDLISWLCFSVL

[8] = biological target: T6, Histone-lysine N-methyltransferase NSD2 (Homo sapiens, UniProt O96028); format: biochemical
T6 sequence (O96028 whole entry): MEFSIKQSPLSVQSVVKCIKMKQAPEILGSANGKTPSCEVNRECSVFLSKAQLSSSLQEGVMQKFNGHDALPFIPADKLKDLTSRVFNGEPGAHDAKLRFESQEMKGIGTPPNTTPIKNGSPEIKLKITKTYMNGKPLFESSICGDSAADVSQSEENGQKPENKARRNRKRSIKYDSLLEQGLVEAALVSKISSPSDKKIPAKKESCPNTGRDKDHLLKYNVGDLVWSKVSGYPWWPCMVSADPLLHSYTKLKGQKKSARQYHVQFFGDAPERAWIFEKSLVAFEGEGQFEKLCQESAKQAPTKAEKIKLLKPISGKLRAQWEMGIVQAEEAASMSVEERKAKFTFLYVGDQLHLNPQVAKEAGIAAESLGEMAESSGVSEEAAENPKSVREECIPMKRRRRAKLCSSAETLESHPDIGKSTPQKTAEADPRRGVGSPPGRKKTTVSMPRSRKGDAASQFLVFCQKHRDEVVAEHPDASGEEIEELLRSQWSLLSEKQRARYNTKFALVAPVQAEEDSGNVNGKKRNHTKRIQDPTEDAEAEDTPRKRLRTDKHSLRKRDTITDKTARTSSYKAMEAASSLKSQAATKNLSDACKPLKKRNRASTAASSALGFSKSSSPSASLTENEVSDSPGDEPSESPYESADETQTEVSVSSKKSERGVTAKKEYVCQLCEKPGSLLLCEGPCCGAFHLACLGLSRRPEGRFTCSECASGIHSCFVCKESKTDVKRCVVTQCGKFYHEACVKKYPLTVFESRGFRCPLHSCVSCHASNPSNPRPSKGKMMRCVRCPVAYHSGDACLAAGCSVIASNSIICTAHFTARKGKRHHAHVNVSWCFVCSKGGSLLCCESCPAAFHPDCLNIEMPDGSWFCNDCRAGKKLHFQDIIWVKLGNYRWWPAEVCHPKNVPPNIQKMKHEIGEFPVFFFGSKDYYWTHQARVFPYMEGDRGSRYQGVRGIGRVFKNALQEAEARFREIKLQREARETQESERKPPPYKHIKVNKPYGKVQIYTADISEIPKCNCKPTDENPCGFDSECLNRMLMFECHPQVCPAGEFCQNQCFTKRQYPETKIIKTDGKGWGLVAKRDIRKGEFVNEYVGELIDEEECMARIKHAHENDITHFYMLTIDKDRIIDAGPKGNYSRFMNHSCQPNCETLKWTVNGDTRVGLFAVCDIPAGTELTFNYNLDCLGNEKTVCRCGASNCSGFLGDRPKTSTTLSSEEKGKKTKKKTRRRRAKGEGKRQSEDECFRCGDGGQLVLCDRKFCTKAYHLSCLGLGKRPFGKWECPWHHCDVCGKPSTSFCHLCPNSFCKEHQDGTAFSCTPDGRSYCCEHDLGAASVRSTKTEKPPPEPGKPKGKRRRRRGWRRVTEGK

Vero = Vero cell cytotoxicity, cytotoxicity control for flavivirus capping enzyme inhibitors (AID 588742); format: functional; settings: Chlorocebus sabaeus
[9] = biological target: T7, Heat shock factor protein 1 (Mus musculus, UniProt P38532); test: inhibition of MG132-induced HSE-luciferase signal, confirmation, cell-based, NIH3T3, luminescence, dose retest (AID 2382); format: functional;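 note: NIH3T3 fibroblasts with HSF1-driven luciferase reporter stressed by proteasome inhibitor MG132; luminescence from HSF1-driven luciferase expression after 8 hours of MG132 stress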
T7 sequence (P38532 whole entry): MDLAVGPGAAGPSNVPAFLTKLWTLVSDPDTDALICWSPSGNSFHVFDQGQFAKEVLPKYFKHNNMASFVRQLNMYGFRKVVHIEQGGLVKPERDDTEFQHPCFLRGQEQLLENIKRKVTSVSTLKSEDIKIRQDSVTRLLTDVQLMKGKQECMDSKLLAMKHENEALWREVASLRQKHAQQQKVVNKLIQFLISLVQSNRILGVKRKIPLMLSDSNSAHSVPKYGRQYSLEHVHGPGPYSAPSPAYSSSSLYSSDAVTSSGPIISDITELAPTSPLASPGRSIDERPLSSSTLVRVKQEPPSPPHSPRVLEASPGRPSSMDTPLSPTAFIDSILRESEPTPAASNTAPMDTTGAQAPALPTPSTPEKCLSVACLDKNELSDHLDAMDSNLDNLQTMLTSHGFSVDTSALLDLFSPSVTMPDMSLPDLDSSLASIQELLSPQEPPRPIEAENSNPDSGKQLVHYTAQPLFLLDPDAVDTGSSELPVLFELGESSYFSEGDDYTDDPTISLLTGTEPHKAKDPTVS

cells = format: functional, cell-based

Sequence of Nonstructural protein 1 (Q194T2 whole entry): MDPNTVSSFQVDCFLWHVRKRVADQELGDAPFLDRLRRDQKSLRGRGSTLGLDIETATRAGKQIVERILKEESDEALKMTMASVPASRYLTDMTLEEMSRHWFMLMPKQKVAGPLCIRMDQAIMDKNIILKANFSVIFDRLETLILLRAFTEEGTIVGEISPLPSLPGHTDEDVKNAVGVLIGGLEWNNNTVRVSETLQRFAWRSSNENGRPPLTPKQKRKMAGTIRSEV
Sequence of Cytochrome P450 3A4 (P08684 whole entry): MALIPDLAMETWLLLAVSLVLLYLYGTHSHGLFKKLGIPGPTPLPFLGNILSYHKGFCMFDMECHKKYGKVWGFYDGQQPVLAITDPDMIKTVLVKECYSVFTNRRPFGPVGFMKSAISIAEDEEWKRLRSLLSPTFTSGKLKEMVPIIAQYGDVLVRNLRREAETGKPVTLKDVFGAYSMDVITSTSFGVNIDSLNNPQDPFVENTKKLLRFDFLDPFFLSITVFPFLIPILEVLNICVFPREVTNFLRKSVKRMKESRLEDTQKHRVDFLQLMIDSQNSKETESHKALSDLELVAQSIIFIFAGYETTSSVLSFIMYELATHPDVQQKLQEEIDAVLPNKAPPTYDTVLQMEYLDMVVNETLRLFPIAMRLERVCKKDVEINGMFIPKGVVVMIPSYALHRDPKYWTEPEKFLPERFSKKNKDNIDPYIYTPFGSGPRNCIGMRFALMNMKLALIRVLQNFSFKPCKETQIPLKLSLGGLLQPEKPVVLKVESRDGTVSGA

## O=C1NC(=S)N(C2CC2)C(=O)/C1=C/NNC(=O)c1ccccc1O
Nonstructural protein 1
  IC50: 16.2 µM (active)

## Cc1cc([N+](=O)[O-])ccc1NCc1ccccc1
Cytochrome P450 3A4
  AC50: 14.1 µM (inconclusive)
[1]
  IC50: 8.31 µM (active)
Protein skinhead-1
  IC50: 66.9 µM (inactive)
[2]
  IC50: 4.41 µM (active)
[3]
  EC50: 0.841 µM (active)
[4]
  EC50: > 53 µM (inactive)

## Cc1ccc2cc3c(N)c(C(=O)Nc4c(C)[nH]c(=O)[nH]c4=O)sc3nc2c1
[5]
  EC50: > 99 µM (inactive)
[6]
  EC50: > 99 µM (inactive)

## Cc1nn(-c2ccccc2)c2c1C(c1ccc(Br)s1)C(C#N)=C(N)O2 (centres undefined)
Nonstructural protein 1
  IC50: 76.2 µM (active)
[7]
  IC50: > 50 µM (not active)

## CC(=O)n1c(/C=N/c2ccc(Cl)cc2)c(O)c2ccccc21
[5]
  EC50: > 99 µM (inactive)
[6]
  EC50: 31.1 µM (inactive)

## CCOC(=O)C1=C(C)N=c2s/c(=C/c3cccc([N+](=O)[O-])c3O)c(=O)n2C1c1ccccc1 (centres undefined)
[8]
  AC50: > 20 µM (inactive)
Vero
  CC50: 31.1 µM (active)
Nonstructural protein 1
  IC50: 22.1 µM (active)

## Cc1ccc(O)c(/C=N/NC(=O)CN2CCCC2)c1
[9]
  EC50: > 195 µM (not active)
Nonstructural protein 1
  IC50: 15.3 µM (active)
cells
  EC50: 104 µM (active)
